# Patent publication US20060252807A1, “Novel ortho-terphenyl inhibitors of p38 kinase and methods of treating inflammatory disorders” (Kalypsys, Inc., priority 2005, published 2006)
# pIC50: −log10 of the molar value.
# Assays:
# TNF-α production = TNF-α production by LPS-stimulated rats (ELISA); format: in vivo, Male Lewis rats; conditions: rat, −1 hr before LPS; for inhibition at 30 mg/kg / inhibition at 10 mg/kg: read-out: LPS Induced TNF alpha (−1 hr) In Vivo (+) = >15% Inhibition (−) = ≦15% Inhibition; for ED50: oral dosing, read-out: LPS Induced TNF alpha (−1 hr) In Vivo (+) = ED50 ≦ 10 (−) = ED50 > 10
# Experimental: TNF-α Production by LPS-Stimulated Mice
# Male Lewis rats (180-200 g) were injected intraperitoneally with lipopolysaccharide (LPS) (50 μg/kg of E. coli strain 0111:B4, Sigma) suspended in sterile saline. Ninety minutes later, mice were sedated by CO2:O2 inhalation and a blood sample was obtained. Serum was separated and analyzed for TNF-α concentrations by commercial ELISA assay per the manufacturer's instructions (R&D Bioscience). Test compounds were administered orally at various times before LPS injection. The compounds were dosed either as suspensions or as solutions in various vehicles or solubilizing agents.
# Compounds were dosed 0.5 to 3 hours before LPS stimulation. Rats were anaesthetized with Isofluor and injected i.v. with 0.3 mg/kg of LPS* in a volume of 0.3 ml sterile saline. Ninety minutes after the LPS injection, blood samples were collected into heparin tubes for preparation of plasma samples. Repression of TNFα production is assessed by commercial ELISA and reported below in Table 2.
# [1] = target: T1, active p38 alpha enzyme (Upstate Biotechnology) (Homo sapiens, UniProt Q16539); test: p38α biochemical assay (ATP turnover, luminescent detection, Cambrex PKlight); conditions: Table 1 Biological Activity
# T1 construct: purchased Upstate Biotechnology
# T1 sequence (Q16539 whole entry): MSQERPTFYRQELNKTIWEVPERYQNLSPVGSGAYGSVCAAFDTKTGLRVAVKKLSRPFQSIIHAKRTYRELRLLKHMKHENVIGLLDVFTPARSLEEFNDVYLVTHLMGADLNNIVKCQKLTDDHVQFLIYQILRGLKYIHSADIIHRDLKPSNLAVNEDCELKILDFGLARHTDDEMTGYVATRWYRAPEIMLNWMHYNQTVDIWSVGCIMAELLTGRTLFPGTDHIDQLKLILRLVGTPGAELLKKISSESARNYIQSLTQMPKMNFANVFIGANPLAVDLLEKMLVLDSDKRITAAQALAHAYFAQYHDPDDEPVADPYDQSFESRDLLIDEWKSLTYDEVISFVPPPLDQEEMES
# How it was run: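 In this kinase reaction, p38α used MapkapK2 as phosphorylation substrate at low ATP (1.4 uM final) over 2 hours at 30C, and activity was followed as ATP turnover by luminescence.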
Compound,inhibition at 30 mg/kg (TNF-α production) [%],pIC50 ([1]; p38α biochemical assay),inhibition at 10 mg/kg (TNF-α production) [%],ED50 (TNF-α production) [mg/kg],pIC50 ([1]; p38α kinase)
"Cc1onc(-c2ccc(F)cc2)c1-c1ccn(C(=O)NC(C)C)n1 [Example 18, 3-|3-(4-Fluoro-phenyl)-5-methyl-isoxazol-4-yl|-pyrazole-1-carboxylic acid isopropylamide]",> 15,≥ 6.00,,,
"CC(C)NC(=O)c1csc(-c2oc(CN3CCOCC3)nc2-c2ccc(F)cc2)n1 [Example 41, 2-|4-(4-Fluoro-phenyl)-2-morpholin-4-ylmethyl-oxazol-5-yl|-thiazole-4-carboxylic acid isopropylamide]",,≥ 6.00,> 15,,
"CONC(=O)c1csc(-c2c(-c3ccc(F)cc3)n[nH]c2C2CCNCC2)n1 [Example 71, 2-|3-(4-Fluoro-phenyl)-5-piperidin-4-yl-1H-pyrazol-4-yl|-thiazole-4-carboxylic acid methoxy-amide]",,≥ 6.00,≤ 15,,
"Cc1onc(-c2ccccc2)c1-c1ccn(C(=O)NC(C)C)n1 [Example 1, 3-(5-Methyl-3-phenyl-isoxazol-4-yl)pyrazole-1-carboxylic acid isopropylamide]",> 15,≥ 6.00,,,
"CC(C)NC(=O)n1ccc(-c2c(-c3ccc(F)cc3)noc2CN2CCOCC2)n1 [Example 26, 3-|3-(4-Fluoro-phenyl)-5-morpholin-4-ylmethyl-isoxazol-4-yl|-pyrazole-1-carboxylic acid isopropylamide]",,≥ 6.00,> 15,≤ 10,
"Cc1onc(-c2ccc(F)cc2)c1-c1nc(C(=O)NC(C)C)cs1 [Example 27, 2-|3-(4-Fluoro-phenyl)-5-methyl-isoxazol-4-yl|-thiazole-4-carboxylic acid isopropylamide]",,≥ 6.00,> 15,> 10,
"CC(C)NC(=O)c1csc(-c2c(-c3ccc(F)cc3)ncn2C2CCN(C(=O)CO)CC2)n1 [Example 93, 2-{5-(4-Fluoro-phenyl)-3-|1-(2-hydroxy-acetyl)-piperidin-4-yl|-3H-imidazol-4-yl}-thiazole-4-carboxylic acid isopropylamide]",,≥ 6.00,> 15,,
"CC(C)NC(=O)c1csc(-c2oc(CN3CCNCC3)nc2-c2ccc(F)cc2)n1 [Example 44, 2-|4-(4-Fluoro-phenyl)-2-piperazin-1-ylmethyl-oxazol-5-yl|-thiazole-4-carboxylic acid isopropylamide]",,≥ 6.00,≤ 15,,
CC(C)NC(=O)c1csc(-c2c(-c3ccc(F)cc3)n[nH]c2C2CCNCC2)n1 [Example 811],,,> 15,,≥ 6.00
"CC(C)NC(=O)c1csc(-c2c(-c3ccc(F)cc3)noc2C2CCNCC2)n1 [Example 35, 2-|3-(4-Fluoro-phenyl)-5-piperidin-4-yl-isoxazol-4-yl|-thiazole-4-carboxylic acid isopropylamide]",,≥ 6.00,≤ 15,,
"C#CCNC(=O)c1csc(-c2c(-c3ccc(F)cc3)n[nH]c2C2CCN(C(=O)CO)CC2)n1 [Example 66, 2-{3-(4-Fluoro-phenyl)-5-|1-(2-hydroxy-acetyl)-piperidin-4-yl|-1H-pyrazol-4-yl}-thiazole-4-carboxylic acid prop-2-ynylamide]",,≥ 6.00,≤ 15,,
"Cc1[nH]nc(-c2ccc(F)cc2)c1-c1nc(C(=O)NCC2CC2)cs1 [Example 73, 2-|3-(4-Fluoro-phenyl)-5-methyl-1H-pyrazol-4-yl|-thiazole-4-carboxylic acid cyclopropylmethyl-amide]",,≥ 6.00,≤ 15,,
"C#CCNC(=O)c1csc(-c2c(-c3ccc(F)cc3)n[nH]c2C)n1 [Example 78, 2-|3-(4-Fluoro-phenyl)-5-methyl-1H-pyrazol-4-yl|-thiazole-4-carboxylic acid prop-2-ynylamide]",,≥ 6.00,≤ 15,,
C#CCNC(=O)c1csc(-c2c(-c3ccc(F)cc3)n[nH]c2C2CCNCC2)n1 [Example 2027],,,> 15,,≥ 6.00
"Cc1onc(-c2ccc(F)cc2F)c1-c1ccn(C(=O)NC(C)C)n1 [Example 17, 3-|3-(2,4-Difluoro-phenyl)-5-methyl-isoxazol-4-yl|-pyrazole-1-carboxylic acid isopropylamide]",> 15,≥ 6.00,,,
"Cc1nc(-c2ccc(F)cc2)c(-c2nc(C(=O)NC(C)C)cs2)s1 [Example 46, 4′-(4-Fluoro-phenyl)-2′-methyl-|2,5′|bithiazolyl-4-carboxylic acid isopropylamide]",> 15,≥ 6.00,,,
